{"source": "patent US20170334877A1", "about": "“REVAPRAZAN HYDROCHLORIDE POLYMORPHS AND PREPARATION METHOD THEREFOR” (JIANGSU TASLY DIYI PHARMACEUTICAL CO., LTD., priority 2014, published 2017)", "key": {"[1]": {"conditions": "general statement in background art; cited from earlier work"}, "[2]": {"test": "Accelerated test (40±2° C., relative humidity 75±5%, 6 months, sealed polyethylene film bag)", "format": "physicochemical", "conditions": "for Appearance color / Purity (%) / Relevant substances: 40±2° C., RH 75±5%; for Purity (%) / Relevant substances: hydrochloride", "protocol": "Revaprazan hydrochloride crystalline form I is sealed in a polyethylene film bag, is placed for 6 months under the conditions that the temperature is 40±2° C. and the relative humidity is 75±5%, and is respectively sampled at the end of the 1st Month, the 2nd Month, the 3rd Month and the 6^thMonth for detection; and the results are shown in Table 4. Revaprazan hydrochloride crystalline form II is sealed in a polyethylene film bag and is placed for 6 months under the conditions that the temperature is 40±2° C. and the relative humidity is 75±5%, and is respectively sampled at the end of the 1st Month, the 2nd Month, the 3rd Month and the 6th Month for detection; and the results are shown in Table 8. Revaprazan hydrochloride crystalline form III is sealed in a polyethylene film bag, is placed for 6 months under the conditions that the temperature is 40±2° C. and the relative humidity is 75±5%, and is sampled at the end of the 1st Month, the 2nd Month, the 3rd Month and the 6th Month for detection. Revaprazan hydrochloride crystalline form IV is sealed in a polyethylene film bag, is placed for 6 months under the conditions that the temperature is 40±2° C. and the relative humidity is 75±5%, and is sampled at the end of the 1st Month, the 2nd Month, the 3rd Month and the 6th Month for detection. Revaprazan hydrochloride crystalline form V is sealed in a polyethylene film bag and is placed for 6 months under the condition that the temperature is 40±2° C. and the relative humidity is 75±5%, and is sampled at the end of the 1st month, the 2nd month, the 3rd month and the 6th month for detection, and the results are shown in Table 20."}, "[3]": {"test": "High humidity test (25° C., relative humidity 75±5%)", "format": "physicochemical", "conditions": "for Appearance color / Purity (%) / Weight gain upon moisture absorption (%): 25° C., RH 75±5%", "protocol": "Revaprazan hydrochloride crystalline form I is placed in an incubator of 25° C. (relative humidity of 75±5%), and is sampled on the 5th day and 10th day for detection. Revaprazan hydrochloride crystalline form II is placed in an incubator of 25° C. (relative humidity of 75±5%), and is sampled on the 5th day and 10th day for detection. Revaprazan hydrochloride polymorph III is placed in an incubator of 25° C. (relative humidity of 75±5%), and is sampled on the 5th day and the 10th day for detection. Revaprazan hydrochloride crystalline form IV is placed in an incubator of 25° C. Revaprazan hydrochloride crystal form 4 is placed in an incubator of 25° C. (the relative humidity is 75±5%), and is sampled on the 5th day and the 10th day for detection."}, "[4]": {"test": "High temperature test (60° C. incubator)", "format": "physicochemical", "conditions": "for Appearance color / Loss on drying (%) / Purity (%) / Relevant substances: 60° C., hydrochloride", "protocol": "Revaprazan hydrochloride crystalline form I is placed in a 60° C. incubator, and is sampled on the 5th day and 10th day for detection, and the results are shown in Table 2. Revaprazan hydrochloride crystalline form II is placed in a 60° C. incubator, and is sampled on the 5th day and 10th day for detection, and the results are shown in Table 6. Revaprazan hydrochloride polymorph III is placed in an incubator of 60° C., and is sampled on the 5th day and the 10th day for detection. Revaprazan hydrochloride crystalline form IV is placed in an incubator of 60° C., and is sampled on the 5th day and the 10th day for detection. Revaprazan hydrochloride crystal form 4 is placed in an incubator of 60° C.; and is sampled on the 5th day and the 10th day for detection, and the results are shown in Table 23."}, "[5]": {"test": "Light illumination test (intense light, 4500±500 Lx)", "format": "physicochemical", "conditions": "for Appearance color / Loss on drying (%) / Purity (%) / Relevant substances: light 4500±500 Lx; for Loss on drying (%) / Purity (%) / Relevant substances: hydrochloride", "text": "Revaprazan hydrochloride crystalline form I is irradiated under such a condition that the light intensity is 4500±500 Lx, and is sampled on the 5th day and 10th day for detection, and the results are shown in Table 1. Revaprazan hydrochloride crystalline form II is irradiated under the condition that the light intensity is 4500±500Lx, and is sampled on the 5th day and 10th day for detection. Revaprazan hydrochloride polymorph III is irradiated under such a condition that the light intensity is 4500±500Lx, and is sampled on the 5th day and 10th day for detection. Revaprazan hydrochloride […] is irradiated under such a condition that the light intensity is 4500±500Lx, and is sampled on the 5th day and the 10th day for detection. Revaprazan hydrochloride crystalline form V is irradiated under the light intensity condition of 4500±500Lx; and is sampled on the 5th day and 10th day for detection."}}, "note": "Where a name gives a salt, the structure may show the parent alone.", "data": [{"smiles": "Cc1nc(Nc2ccc(F)cc2)nc(N2CCc3ccccc3C2C)c1C", "note": "(stereo not drawn) [Revaprazan hydrochloride]", "values": [{"measurement": "Time to maximum plasma concentration", "setting": "[1]", "value": "about 1 h"}]}, {"smiles": "Cc1nc(Nc2ccc(F)cc2)nc(N2CCc3ccccc3C2C)c1C", "note": "(single isomer, unassigned) [revaprazan hydrochloride crystalline form IV]", "values": [{"measurement": "Appearance color", "setting": "[2]; 1st month", "value": "White powder"}, {"measurement": "Purity (%)", "setting": "[2]; 1st month", "value": 99.91, "unit": "%"}, {"measurement": "Relevant substances", "setting": "[2]; 1st month", "value": "Undetected"}, {"measurement": "Appearance color", "setting": "[2]; 2nd month", "value": "White powder"}, {"measurement": "Purity (%)", "setting": "[2]; 2nd month", "value": 99.90, "unit": "%"}, {"measurement": "Relevant substances", "setting": "[2]; 2nd month", "value": "Undetected"}, {"measurement": "Appearance color", "setting": "[2]; 3rd month", "value": "White powder"}, {"measurement": "Purity (%)", "setting": "[2]; 3rd month", "value": 99.95, "unit": "%"}, {"measurement": "Relevant substances", "setting": "[2]; 3rd month", "value": "Undetected"}, {"measurement": "Appearance color", "setting": "[2]; 6th month", "value": "White powder"}, {"measurement": "Purity (%)", "setting": "[2]; 6th month", "value": 99.94, "unit": "%"}, {"measurement": "Relevant substances", "setting": "[2]; 6th month", "value": "Undetected"}, {"measurement": "Appearance color", "setting": "[2]; Month 0", "value": "White powder"}, {"measurement": "Purity (%)", "setting": "[2]; Month 0", "value": 99.93, "unit": "%"}, {"measurement": "Relevant substances", "setting": "[2]; Month 0", "value": "Undetected"}, {"measurement": "Stability (conclusion in words)", "setting": "[2]; accelerated test, no obvious changes in appearance color, purity, relevant substances", "value": "stable"}, {"measurement": "Appearance color", "setting": "[3]; 5th day", "value": "White powder"}, {"measurement": "Purity (%)", "setting": "[3]; 5th day, hydrochloride", "value": 99.96, "unit": "%"}, {"measurement": "Weight gain upon moisture absorption (%)", "setting": "[3]; 5th day, hydrochloride", "value": 0.44, "unit": "%"}, {"measurement": "Appearance color", "setting": "[3]; 10th day", "value": "White powder"}, {"measurement": "Purity (%)", "setting": "[3]; 10th day, hydrochloride", "value": 99.93, "unit": "%"}, {"measurement": "Weight gain upon moisture absorption (%)", "setting": "[3]; 10th day, hydrochloride", "value": 0.62, "unit": "%"}, {"measurement": "Appearance color", "setting": "[3]; Day 0", "value": "White powder"}, {"measurement": "Weight gain upon moisture absorption (%)", "setting": "[3]; Day 0", "value": 0, "unit": "%"}, {"measurement": "Purity (%)", "setting": "[3]; Day 0, hydrochloride", "value": 99.93, "unit": "%"}, {"measurement": "Weight gain upon moisture absorption (in words)", "setting": "[3]; high humidity condition", "value": "slight weight gain"}, {"measurement": "Stability (conclusion in words)", "setting": "[3]; high humidity, no obvious changes in appearance color, purity, relevant substances", "value": "stable"}, {"measurement": "Appearance color", "setting": "[4]; 5th day", "value": "White powder"}, {"measurement": "Loss on drying (%)", "setting": "[4]; 5th day", "value": 0.27, "unit": "%"}, {"measurement": "Purity (%)", "setting": "[4]; 5th day", "value": 99.91, "unit": "%"}, {"measurement": "Relevant substances", "setting": "[4]; 5th day", "value": "Undetected"}, {"measurement": "Appearance color", "setting": "[4]; 10th day", "value": "White powder"}, {"measurement": "Loss on drying (%)", "setting": "[4]; 10th day", "value": 0.27, "unit": "%"}, {"measurement": "Purity (%)", "setting": "[4]; 10th day", "value": 99.92, "unit": "%"}, {"measurement": "Relevant substances", "setting": "[4]; 10th day", "value": "Undetected"}, {"measurement": "Appearance color", "setting": "[4]; Day 0", "value": "White powder"}, {"measurement": "Loss on drying (%)", "setting": "[4]; Day 0", "value": 0.25, "unit": "%"}, {"measurement": "Purity (%)", "setting": "[4]; Day 0", "value": 99.93, "unit": "%"}, {"measurement": "Relevant substances", "setting": "[4]; Day 0", "value": "Undetected"}, {"measurement": "Stability (conclusion in words)", "setting": "[4]; high temperature, no obvious changes in appearance color, loss on drying, purity, relevant substances", "value": "stable"}, {"measurement": "Stability (conclusion in words)", "setting": "[5]; intense light illumination, no obvious changes in appearance color, loss on drying, purity, relevant substances", "value": "stable"}, {"measurement": "Appearance color", "setting": "[5]; 5th day", "value": "White powder"}, {"measurement": "Loss on drying (%)", "setting": "[5]; 5th day", "value": 0.29, "unit": "%"}, {"measurement": "Purity (%)", "setting": "[5]; 5th day", "value": 99.95, "unit": "%"}, {"measurement": "Relevant substances", "setting": "[5]; 5th day", "value": "Undetected"}, {"measurement": "Appearance color", "setting": "[5]; 10th day", "value": "White powder"}, {"measurement": "Loss on drying (%)", "setting": "[5]; 10th day", "value": 0.31, "unit": "%"}, {"measurement": "Purity (%)", "setting": "[5]; 10th day", "value": 99.92, "unit": "%"}, {"measurement": "Relevant substances", "setting": "[5]; 10th day", "value": "Undetected"}, {"measurement": "Appearance color", "setting": "[5]; Day 0", "value": "White powder"}, {"measurement": "Loss on drying (%)", "setting": "[5]; Day 0", "value": 0.27, "unit": "%"}, {"measurement": "Purity (%)", "setting": "[5]; Day 0", "value": 99.93, "unit": "%"}, {"measurement": "Relevant substances", "setting": "[5]; Day 0", "value": "Undetected"}]}]}
